The target in this assay is T1, human IDO1 (Homo sapiens, UniProt P14902).
T1 construct: expressed in transfected cells
T1 sequence (P14902 whole entry): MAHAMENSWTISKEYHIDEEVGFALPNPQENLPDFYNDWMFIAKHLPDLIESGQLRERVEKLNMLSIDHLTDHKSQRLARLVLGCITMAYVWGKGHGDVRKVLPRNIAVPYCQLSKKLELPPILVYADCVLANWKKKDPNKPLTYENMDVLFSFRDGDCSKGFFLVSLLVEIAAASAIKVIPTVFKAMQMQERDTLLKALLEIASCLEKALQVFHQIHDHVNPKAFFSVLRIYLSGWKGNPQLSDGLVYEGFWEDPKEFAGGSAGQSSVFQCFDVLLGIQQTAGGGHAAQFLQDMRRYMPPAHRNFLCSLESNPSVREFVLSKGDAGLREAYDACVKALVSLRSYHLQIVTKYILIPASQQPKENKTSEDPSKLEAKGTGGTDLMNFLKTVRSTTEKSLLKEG
The assay is described as follows: IDO inhibition assay in HEK293 cells stably expressing human IDO1 (kynurenine production, Ehrlich reagent, absorbance 490 nm). The format is cell-based. As to conditions: 20 hours incubation with compound, 500 nM reference standard = 100% inhibition, read-out: IDO1 HEK Human IC50. In short, it runs like this:
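HEK293 clones stably expressing human IDO1 (10,000 cells/well, phenol red-free RPMI, 10% FBS) were treated with compound for 20 hours at 37° C. After 0.2% TCA and 30 min at 50° C., kynurenine was read with Ehrlich reagent at 490 nm. IC50 was normalised to DMSO (0%) and 500 nM reference standard (100%).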
In the case of `CCCN(Cc1ccccc1)c1cc(NC(=O)Nc2ccc(C(F)(F)F)cc2)cc(-c2ccccc2-c2nnn[nH]2)n1` [Example 289, 1-(2-(2-(1H-Tetrazol-5-yl)phenyl)-6-(benzyl(propyl)amino)pyridin-4-yl)-3-(4-(trifluoromethyl)phenyl)urea], the IC50 worked out at 41.2 nM.

For the compound `CCCN(Cc1ccccc1)c1cc(NC(=O)Cc2ccc(C#N)cc2)cc(-c2ccccc2-c2nn[nH]n2)n1` [Example 290, N-(2-(2-(1H-Tetrazol-5-yl)phenyl)-6-(benzyl(propyl)amino)pyridin-4-yl)-2-(4-cyanophenyl)acetamide], the IC50 came to 483 nM.

For `CCCN(Cc1ccccc1)c1cc(NC(=O)Cc2ccc(C)cc2)cc(-c2ccccc2-c2nnn[nH]2)n1` [Example 291], the IC50 is 127 nM.

In the case of `CCCN(Cc1ccccc1)c1cc(NC(=O)Cc2cccnc2)cc(-c2ccccc2-c2nn[nH]n2)n1` [Example 292], the IC50 was 3360 nM.

As for `CCCN(Cc1ccccc1)c1cc(NC(=O)Cc2ccc(C)nc2)cc(-c2ccccc2-c2nnn[nH]2)n1` [Example 293], the IC50 is 1370 nM.

In the case of `CCCN(Cc1ccccc1)c1cc(NC(=O)CC2CCC(C)CC2)cc(-c2ccccc2-c2nnn[nH]2)n1` (stereo not shown) [Example 294], the IC50 worked out at 774 nM.

For the compound `CCCN(Cc1ccccc1)c1cc(NC(=O)CC2CCOCC2)cc(-c2ccccc2-c2nnn[nH]2)n1` [Example 295], the IC50 was determined as 3730 nM.

With `CCCN(Cc1ccccc1)c1cc(NC(=O)Cc2cc(C)no2)cc(-c2ccccc2-c2nnn[nH]2)n1` [Example 296], the IC50 came to 797 nM.

With `CCCN(Cc1ccccc1)c1cc(NC(=O)Nc2cc(C)on2)cc(-c2ccccc2-c2nnn[nH]2)n1` [Example 297], the IC50 stood at 270 nM.

As for `CCCN(Cc1ccccc1)c1cc(NC(=O)N(C)c2ccc(C(F)(F)F)cc2)cc(-c2ccccc2-c2nnn[nH]2)n1` [Example 298], the IC50 is 38.9 nM.

As to `CCCN(Cc1ccccc1)c1cc(NC(=O)Nc2cc(C)ccn2)cc(-c2ccccc2-c2nnn[nH]2)n1` [Example 299], the IC50 was 845 nM.

As to `CCCN(Cc1ccccc1)c1cc(NC(=O)NC2CCCCC2)cc(-c2ccccc2-c2nnn[nH]2)n1` [Example 300], the IC50 stood at 5210 nM.

`CCCN(Cc1ccccc1)c1cc(NC(=O)Nc2ccc(C)cc2)cc(-c2cc(C)ccc2-c2nnn[nH]2)n1` [Example 301, 1-(2-(Benzyl(propyl)amino)-6-(5-methyl-2-(1H-tetrazol-5-yl)phenyl)pyridin-4-yl)-3-(p-tolyl)urea]: the IC50 came out at 46.1 nM.

Regarding `CCCN(Cc1ccccc1)c1cc(NC(=O)Nc2ccc(Cl)cc2Cl)cc(-c2cc(C)ccc2-c2nnn[nH]2)n1` [Example 302, 1-(2-(Benzyl(propyl)amino)-6-(5-methyl-2-(1H-tetrazol-5-yl)phenyl)pyridin-4-yl)-3-(2,4-dichlorophenyl)urea], the IC50 was 5.5 nM.

As to `CCCN(Cc1ccccc1)c1cc(NC(=O)Cc2ccc(C)cc2)cc(-c2cc(C)ccc2-c2nnn[nH]2)n1` [Example 303, N-(2-(Benzyl(propyl)amino)-6-(5-methyl-2-(1H-tetrazol-5-yl)phenyl)pyridin-4-yl)-2-(p-tolyl)acetamide], the IC50 amounted to 102 nM.

Take `CCCN(Cc1ccccc1)c1cc(NC(=O)C2CCCCC2)cc(-c2cc(C)ccc2-c2nnn[nH]2)n1` [Example 304, N-(2-(Benzyl(propyl)amino)-6-(5-methyl-2-(1H-tetrazol-5-yl)phenyl)pyridin-4-yl)cyclohexanecarboxamide]: the IC50 stood at 1310 nM.

In general, IC50 refers to the concentration at which inhibition is half-maximal.
